Earlier results on 1 compound are cited in patent US6906047B2, “Aqueous ifosfamide composition” (Gensia Sicor Pharmaceuticals, Inc., priority 2001, dated 2005).

For the compound `O=P1(NCCCl)OCCCN1CCCl` (stereo not shown) [ifosfamide, 3-(2-chloroethyl)-2-[(2-chloroethylamino)]-tetrahydro-2H-1,3,2-oxazaphosphorin-2-oxide], the “solubility of ifosfamide in water” value was “about 10 % by weight”.
